Experiments:
Experiment in all cases: relative viability (nuclei count vs DMSO), 5 days (fraction); higher = more cells survive
[1] = compound: CCN(CCO)CCCC(C)Nc1ccnc2cc(Cl)ccc12 [Hydroxychloroquine] + Cc1cc(Nc2cc(N3CCN(C)CC3)nc(Sc3ccc(NC(=O)C4CC4)cc3)n2)n[nH]1 [Tozasertib] (partner 0.1 µM)
Method in brief: (§1)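 A single step with final 0.05% Triton X-100, 1% formaldehyde and 1 ug/ml Hoechst fixed the cells and stained nuclei 5 days after treatment. Lung cancer cell lines in 1536-well plates had been treated by pin tool the day after seeding with one drug alone or a fixed anchor-drug dose plus five library-drug doses (not always all listed) in √10 steps, and nuclei were counted on 4× images. Relative viability is the ratio of nuclei in treated wells to nuclei in vehicle wells, taken as the median of duplicate plates.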

[2] = compound: CCN(CCO)CCCC(C)Nc1ccnc2cc(Cl)ccc12 [Hydroxychloroquine] + CC1(C)CCC(c2ccc(Cl)cc2)=C(CN2CCN(c3ccc(C(=O)NS(=O)(=O)c4ccc(N[C@H](CCN5CCOCC5)CSc5ccccc5)c(S(=O)(=O)C(F)(F)F)c4)cc3)CC2)C1 [Navitoclax] (partner 0.5 µM)
Method in brief: as §1

[3] = compound: CCN(CCO)CCCC(C)Nc1ccnc2cc(Cl)ccc12 [Hydroxychloroquine] + O=C(CCCCCCC(=O)Nc1ccccc1)NO [Vorinostat] (partner 1 µM)
Method in brief: as §1

[4] = compound: CCN(CCO)CCCC(C)Nc1ccnc2cc(Cl)ccc12 [Hydroxychloroquine] + C[C@@H](Oc1cc(-c2cnn(C3CCNCC3)c2)cnc1N)c1c(Cl)ccc(F)c1Cl [Crizotinib] (partner 1 µM)
Method in brief: as §1

Cell Line | relative viability ([1]; first compound 0.5 µM) | relative viability ([1]; first compound 1.581 µM) | relative viability ([1]; first compound 5 µM) | relative viability ([1]; first compound 15.81 µM) | relative viability ([1]; first compound 50 µM) | relative viability ([2]; first compound 0.5 µM) | relative viability ([2]; first compound 1.581 µM) | relative viability ([2]; first compound 5 µM) | relative viability ([2]; first compound 15.81 µM) | relative viability ([2]; first compound 50 µM) | relative viability ([3]; first compound 1.581 µM) | relative viability ([3]; first compound 5 µM) | relative viability ([3]; first compound 15.81 µM) | relative viability ([3]; first compound 50 µM) | relative viability ([4]; first compound 0.5 µM) | relative viability ([4]; first compound 1.581 µM) | relative viability ([4]; first compound 5 µM) | relative viability ([4]; first compound 15.81 µM) | relative viability ([4]; first compound 50 µM) | relative viability ([3]; first compound 0.5 µM)
EPLC-272H | 0.262 | 0.152 | 0.26 | 0.257 | 0.287 | 1.19 | 1.07 | 1.28 | 1.24 | 1.29 | 0.359 | 0.433 | 0.392 | 0.488 | 0.8 | 0.983 | 0.92 | 0.86 | 1.23 | 
NCI-H2405 | 0.769 | 0.691 | 0.756 | 0.707 | 0.728 | 1.03 | 0.753 | 0.857 | 0.914 | 0.8 | 0.963 | 0.937 | 1.03 | 0.999 | 0.856 | 0.813 | 0.867 | 0.88 | 0.864 | 1.05
HCC-15 | 0.392 | 0.399 | 0.412 | 0.321 | 0.441 | 0.72 | 0.669 | 0.702 | 0.758 | 0.714 | 0.828 | 0.902 | 0.9 | 0.775 | 0.884 | 0.818 | 0.867 | 1.01 | 0.94 | 0.796
RERF-LC-KJ | 0.452 | 0.523 | 0.541 | 0.487 | 0.478 | 0.894 | 0.983 | 0.93 | 0.934 | 0.749 | 0.607 | 0.631 | 0.692 | 0.677 | 0.942 | 0.785 | 0.786 | 0.848 | 0.81 | 0.696
NCI-H1944 | 0.254 | 0.249 | 0.232 | 0.264 | 0.271 | 0.958 | 0.955 | 1.06 | 0.951 | 1.01 | 0.487 | 0.46 | 0.478 | 0.56 | 1.07 | 1.06 | 1.07 | 1.04 | 1.19 | 0.553
HARA | 0.221 | 0.0946 | 0.0888 | 0.11 | 0.099 | 1.14 | 1.15 | 1.14 | 1.2 | 1.12 | 0.482 | 0.55 | 0.603 | 0.594 | 1.13 | 1.31 | 1.05 | 1.02 | 1.04 | 0.516
NCI-H2126 | 0.821 | 0.77 | 0.836 | 0.887 | 0.949 | 0.859 | 0.804 | 0.848 | 0.884 | 0.833 | 0.728 | 0.749 | 0.733 | 0.897 | 1.12 | 1.06 | 1.11 | 0.984 | 1.13 | 0.834
LXF-289 | 0.172 | 0.17 | 0.2 | 0.176 | 0.193 | 0.956 | 0.986 | 0.983 | 0.948 | 0.999 | 0.795 | 0.723 | 0.757 | 0.709 | 0.838 | 0.773 | 0.803 | 0.822 | 0.853 | 0.767
NCI-H520 | 0.45 | 0.39 | 0.442 | 0.465 | 0.41 | 1.12 | 1.16 | 1.13 | 1.03 | 1.2 | 0.642 | 0.743 | 0.77 | 0.715 | 0.894 | 0.826 | 0.86 | 0.752 | 0.993 | 0.915
NCI-H2170 | 0.721 | 0.751 | 0.67 | 0.813 | 0.728 | 0.54 | 0.695 | 0.631 | 0.644 | 0.549 | 0.839 | 0.829 | 0.878 | 0.95 | 1.24 | 1.24 | 1.35 | 1.27 | 1.57 | 0.784
NCI-H2009 | 0.819 | 0.745 | 0.784 | 0.739 | 0.726 | 1.16 | 1.22 | 1.21 | 1.13 | 1.25 | 0.718 | 0.75 | 0.747 | 0.729 | 1.02 | 1 | 1.06 | 1.05 | 1.08 | 0.764

Reference: the supplement of paper PMC10307832
